Test results taken from ChEMBL document CHEMBL5154741, “Antibacterial alkylguanidino ureas: Molecular simplification approach, searching for membrane-based MoA” (Eur J Med Chem, 2022).
In brackets after ≈: the same amount, converted by molar mass. Activity calls are given as the source filed them. No cut-off for these calls is given here.

How the values were obtained:
Enterococcus faecalis = assay: Antibacterial activity against Enterococcus faecalis ATCC 19433 assessed as bacterial growth inhibition incubated for 18 hrs by micro-dilution broth method; format: functional
Pseudomonas aeruginosa = assay: Antibacterial activity against Pseudomonas aeruginosa ATCC 27853 assessed as bacterial growth inhibition incubated for 18 hrs by micro-dilution broth method; format: functional
Acinetobacter baumannii [1] = assay: Antibacterial activity against Acinetobacter baumannii ATCC 17978 assessed as bacterial growth inhibition incubated for 18 hrs by micro-dilution broth method; format: functional
Bacillus subtilis = assay: Antibacterial activity against Bacillus subtilis ATCC 6633 assessed as bacterial growth inhibition incubated for 18 hrs by CLSI based micro-dilution broth method; format: functional
Staphylococcus aureus = assay: Antibacterial activity against Staphylococcus aureus ATCC 25923 assessed as bacterial growth inhibition incubated for 18 hrs by micro-dilution broth method; format: functional
Escherichia coli = assay: Antibacterial activity against Escherichia coli CCUG assessed as bacterial growth inhibition incubated for 18 hrs by micro-dilution broth method; format: functional
Streptococcus pyogenes = assay: Antibacterial activity against Streptococcus pyogenes ATCC 12344 assessed as bacterial growth inhibition incubated for 18 hrs by micro-dilution broth method; format: functional
Klebsiella pneumoniae [2] = assay: Antibacterial activity against Klebsiella pneumoniae ATCC 13833 assessed as bacterial growth inhibition incubated for 18 hrs by micro-dilution broth method; format: functional
Lipid bilayer [3] = assay: Binding affinity to bacterial membrane mimic POPG large unilamellar vesicle assessed as bathochromic shift at 125 uM measured at t = 0 by UV-Vis spectrophotometric analysis
Lipid bilayer [4] = assay: Binding affinity to bacterial membrane mimic POPG large unilamellar vesicle assessed as hyperchromic shift at 125 uM measured after 1 hr by UV-Vis spectrophotometric analysis
Enterobacter cloacae = assay: Antibacterial activity against Enterobacter cloacae VA-417/02 assessed as bacterial growth inhibition incubated for 18 hrs by CLSI based micro-dilution broth method; format: functional
Acinetobacter baumannii [5] = assay: Antibacterial activity against Acinetobacter baumannii AC-54/97 assessed as bacterial growth inhibition incubated for 18 hrs by CLSI based micro-dilution broth method; format: functional
Klebsiella pneumoniae [6] = assay: Antibacterial activity against pan drug-resistant Klebsiella pneumoniae S1-081Rb assessed as bacterial growth inhibition incubated for 18 hrs by CLSI based micro-dilution broth method; format: functional

Row | Molecule | MIC (Enterococcus faecalis) [mg/L] | MIC (Pseudomonas aeruginosa) [mg/L] | MIC (Acinetobacter baumannii [1]) [mg/L] | MIC (Bacillus subtilis) [mg/L] | MIC (Staphylococcus aureus) [mg/L] | MIC (Escherichia coli) [mg/L] | MIC (Streptococcus pyogenes) [mg/L] | MIC (Klebsiella pneumoniae [2]) [mg/L] | Activity (Lipid bilayer [3]) | Activity (Lipid bilayer [4]) | MBC (Enterobacter cloacae) [mg/L] | MIC (Enterobacter cloacae) [mg/L] | MBC (Acinetobacter baumannii [5]) [mg/L] | MIC (Acinetobacter baumannii [5]) [mg/L] | MBC (Klebsiella pneumoniae [6]) [mg/L] | MIC (Klebsiella pneumoniae [6]) [mg/L]
1 | N=C(N)NCCCCCCCCN(CCCCCCCCNC(=N)N)C(=O)N(CCCCCCCCN)CCCCCCCCN | 8 (≈ 12.2 µM) | 32 (≈ 49 µM) | 16 (≈ 24.5 µM) | 0.5 (≈ 0.766 µM) | 0.5 (≈ 0.766 µM) | 2 (≈ 3.06 µM) | 0.25 (≈ 0.383 µM) | 16 (≈ 24.5 µM) | – | – | – | – | – | – | – | –
2 | CNC(=O)NCCCCCCCCNC(=N)NCC1CC1.O=C(O)C(F)(F)F | 64 | > 128 | > 128 | 64 | 32 | 128 | 128 | 128 | – | – | – | – | – | – | – | –
3 | N=C(NCCCCCCCCNC(=O)N(CCCCCCCCNC(=N)NCC1CC1)CCCCCCCCNC(=N)NCC1CC1)NCC1CC1.O=C(O)C(F)(F)F | 8 | 64 | 64 | 1 | 4 | 8 | 1 | 8 | Active | Active | – | – | – | – | – | –
4 | N=C(N)NCCCCCCCCN(CCCCCCCCNC(=N)N)C(=O)N(CCCCCCCCNC(=N)N)CCCCCCCCNC(=N)NCC1CC1.O=C(O)C(F)(F)F | 2 | 16 | 8 | 2 | 2 | 8 | 1 | 4 | – | – | 8 | 8 | 16 | 8 | 16 | 8
5 | COLISTIN | – | 0.5 | 1 | – | – | 0.5 | – | 0.5 | – | – | – | – | – | – | – | –
6 | CCCCCCCCCC(=O)N[C@@H](Cc1c[nH]c2ccccc12)C(=O)N[C@H](CC(N)=O)C(=O)N[C@@H](CC(=O)O)C(=O)N[C@@H]1C(=O)NCC(=O)N[C@@H](CCCN)C(=O)N[C@@H](CC(=O)O)C(=O)N[C@H](C)C(=O)N[C@@H](CC(=O)O)C(=O)NCC(=O)N[C@H](CO)C(=O)N[C@@H]([C@H](C)CC(=O)O)C(=O)N[C@@H](CC(=O)c2ccccc2N)C(=O)O[C@@H]1C | 1 (≈ 0.617 µM) | – | – | 1 (≈ 0.617 µM) | 0.12 (≈ 0.074 µM) | – | 0.5 (≈ 0.309 µM) | – | – | – | – | – | – | – | – | –
7 | CCCCCCCCN(CCCCCCCC)C(=O)N(CCCCCCCC)CCCCCCCCNC(=N)NCC1CC1.O=C(O)C(F)(F)F | 128 | > 128 | > 128 | 64 | > 128 | > 128 | 16 | > 128 | – | – | – | – | – | – | – | –
8 | CN[C@H](CC(C)C)C(=O)N[C@H]1C(=O)N[C@@H](CC(N)=O)C(=O)N[C@H]2C(=O)N[C@H]3C(=O)N[C@H](C(=O)N[C@H](C(=O)O)c4cc(O)cc(O)c4-c4cc3ccc4O)[C@H](O)c3ccc(c(Cl)c3)Oc3cc2cc(c3O[C@@H]2O[C@H](CO)[C@@H](O)[C@H](O)[C@H]2O[C@H]2C[C@](C)(N)[C@H](O)[C@H](C)O2)Oc2ccc(cc2Cl)[C@H]1O [VANCOMYCIN] | 1 (≈ 0.69 µM) | – | – | 0.5 (≈ 0.345 µM) | – | – | 1 (≈ 0.69 µM) | – | – | – | – | – | – | – | – | –
9 | CCCCCCCCN(CCCCCCCC)C(=O)N(CCCCCCCCNC(=N)NCC1CC1)CCCCCCCCNC(=N)NCC1CC1.O=C(O)C(F)(F)F | 128 | > 128 | 128 | 128 | > 128 | 128 | 4 | 64 | – | – | – | – | – | – | – | –
10 | CCCCCCCCN(CCCCCCCCNC(=N)NCC1CC1)C(=O)N(CCCCCCCC)CCCCCCCCNC(=N)NCC1CC1.O=C(O)C(F)(F)F | 32 | > 128 | > 128 | 128 | > 128 | > 128 | 8 | 128 | – | – | – | – | – | – | – | –
11 | N=C(N)NCCCCCCCCN(CCCCCCCCN)C(=O)N(CCCCCCCCN)CCCCCCCCN | 32 (≈ 52.4 µM) | 128 (≈ 209 µM) | 64 (≈ 105 µM) | 4 (≈ 6.55 µM) | 2 (≈ 3.27 µM) | 32 (≈ 52.4 µM) | 16 (≈ 26.2 µM) | 64 (≈ 105 µM) | Active | Active | – | – | – | – | – | –
12 | N=C(NCCCCCCCCN(CCCCCCCCNC(=N)NCC1CC1)C(N)=O)NCC1CC1.O=C(O)C(F)(F)F | 16 | 128 | 128 | 8 | 16 | 32 | 2 | 32 | – | – | – | – | – | – | – | –
13 | NCCCCCCCCN(CCCCCCCCN)C(=O)N(CCCCCCCCN)CCCCCCCCN | 16 (≈ 28.1 µM) | 32 (≈ 56.2 µM) | 16 (≈ 28.1 µM) | 4 (≈ 7.03 µM) | 8 (≈ 14.1 µM) | 32 (≈ 56.2 µM) | 4 (≈ 7.03 µM) | 16 (≈ 28.1 µM) | – | – | – | – | – | – | – | –
14 | CCCCCCCCN(CCCCCCCC)C(=O)N(CCCCCCCC)CCCCCCCC | > 128 | > 128 | > 128 | > 128 | > 128 | > 128 | > 128 | > 128 | – | – | – | – | – | – | – | –

Second part, led by results:

Row | MIC (Enterococcus faecalis) [mg/L] | MIC (Pseudomonas aeruginosa) [mg/L] | MIC (Acinetobacter baumannii [1]) [mg/L] | MIC (Bacillus subtilis) [mg/L] | MIC (Staphylococcus aureus) [mg/L] | MIC (Escherichia coli) [mg/L] | MIC (Streptococcus pyogenes) [mg/L] | MIC (Klebsiella pneumoniae [2]) [mg/L] | Activity (Lipid bilayer [3]) | Activity (Lipid bilayer [4]) | Molecule | MBC (Enterobacter cloacae) [mg/L] | MIC (Enterobacter cloacae) [mg/L] | MBC (Acinetobacter baumannii [5]) [mg/L] | MIC (Acinetobacter baumannii [5]) [mg/L] | MBC (Klebsiella pneumoniae [6]) [mg/L] | MIC (Klebsiella pneumoniae [6]) [mg/L]
15 | 64 (≈ 126 µM) | > 128 | – | > 128 | 128 (≈ 253 µM) | 64 (≈ 126 µM) | 8 (≈ 15.8 µM) | > 128 | – | – | N=C(NCCCCCCCCNC(=O)NCCCCCCCCNC(=N)NCC1CC1)NCC1CC1 | – | – | – | – | – | –
16 | 2 (≈ 2.64 µM) | 64 (≈ 84.4 µM) | 32 (≈ 42.2 µM) | 1 (≈ 1.32 µM) | 2 (≈ 2.64 µM) | 4 (≈ 5.28 µM) | 1 (≈ 1.32 µM) | 8 (≈ 10.6 µM) | – | – | CCCCCCN(CCCCCCNC(=N)NCC1CC1)C(=O)N(CCCCCCCCNC(=N)NCC1CC1)CCCCCCNC(=N)NCC1CC1 | – | – | – | – | – | –
17 | > 128 | > 128 | > 128 | 32 (≈ 59.2 µM) | 128 (≈ 237 µM) | > 128 | 128 (≈ 237 µM) | > 128 | – | – | N=C(N)NCCCCCCN(CCCCCCN)C(=O)N(CCCCCCN)CCCCCCNC(=N)N | – | – | – | – | – | –
18 | 2 (≈ 2.46 µM) | 8 (≈ 9.82 µM) | 4 (≈ 4.91 µM) | 2 (≈ 2.46 µM) | 1 (≈ 1.23 µM) | 2 (≈ 2.46 µM) | 1 (≈ 1.23 µM) | 2 (≈ 2.46 µM) | – | – | CCCCCCCCN(CCCCCCNC(=N)NCC1CC1)C(=O)N(CCCCCCCCNC(=N)NCC1CC1)CCCCCCCCNC(=N)NCC1CC1 | – | – | – | – | – | –
19 | 1 (≈ 1.23 µM) | 16 (≈ 19.6 µM) | 8 (≈ 9.82 µM) | 2 (≈ 2.46 µM) | 2 (≈ 2.46 µM) | 4 (≈ 4.91 µM) | 1 (≈ 1.23 µM) | 8 (≈ 9.82 µM) | – | – | CCCCCCN(CCCCCCCCNC(=N)NCC1CC1)C(=O)N(CCCCCCCCNC(=N)NCC1CC1)CCCCCCCCNC(=N)NCC1CC1 | – | – | – | – | – | –
20 | 64 (≈ 123 µM) | > 128 | > 128 | 32 (≈ 61.4 µM) | 128 (≈ 246 µM) | 128 (≈ 246 µM) | 8 (≈ 15.4 µM) | 128 (≈ 246 µM) | – | – | CNC(=O)N(CCCCCCCCNC(=N)NCC1CC1)CCCCCCCCNC(=N)NCC1CC1 | – | – | – | – | – | –
21 | 2 (≈ 2.37 µM) | 8 (≈ 9.5 µM) | 4 (≈ 4.75 µM) | 2 (≈ 2.37 µM) | 16 (≈ 19 µM) | 4 (≈ 4.75 µM) | 1 (≈ 1.19 µM) | 4 (≈ 4.75 µM) | Active | Active | CCCCCCCCN(CCCCCCCCNC(=N)NCC1CC1)C(=O)N(CCCCCCCCNC(=N)NCC1CC1)CCCCCCCCNC(=N)NCC1CC1 | – | – | – | – | – | –
